Measurements reported in publication PMC8720286 (Chemical biology & drug design, 2020).
Converted amounts (≈) assume the structure as drawn.

What was measured:
Mtb H37Rv = assay: MIC determination by microplate AlamarBlue assay; conditions: for fold more potent against M.tb than counterparts 3 - 5 with no carbon spacer: 9 vs 3, 10 vs 4, 11 vs 5; for anti-TB activity in words: susceptible strain of Mtb, SAR discussion; for Mtb MIC H37Rv/DS: Table 2, H37Rv drug-sensitive
Mtb V4207/DS = assay: microbe, parasite or virus in culture; assay type: cell-based; conditions: Mycobacterium tuberculosis, read-out: Mtb MIC V4207/DS
Mtb KZN494/MDR = assay: microbe, parasite or virus in culture; assay type: cell-based, Mycobacterium tuberculosis; conditions: relative to H37Rv MIC
in vitro [1] = assay type: cell-based; conditions: African green monkey
Vero cells = assay: in vitro; assay type: cell-based; conditions: IC50 (Vero)/MIC
clinical isolates of Mtb = assay type: cell-based, Mycobacterium tuberculosis; conditions: for MIC range against MDR and XDR strains of TB: range over both compounds and strains; for fold drop in activity against the tested clinical isolates of Mtb: relative to H37Rv MIC
in vitro [2] = assay type: in vitro ADME; conditions: human, plasma
in vitro [3] = assay type: in vitro ADME; conditions: mouse, plasma
CYP1A2 = biological target: T1, CYP1A2 (Homo sapiens, UniProt P05177); assay: CYP inhibition, CYP1A2; assay type: in vitro ADME
T1 sequence (P05177 1-516): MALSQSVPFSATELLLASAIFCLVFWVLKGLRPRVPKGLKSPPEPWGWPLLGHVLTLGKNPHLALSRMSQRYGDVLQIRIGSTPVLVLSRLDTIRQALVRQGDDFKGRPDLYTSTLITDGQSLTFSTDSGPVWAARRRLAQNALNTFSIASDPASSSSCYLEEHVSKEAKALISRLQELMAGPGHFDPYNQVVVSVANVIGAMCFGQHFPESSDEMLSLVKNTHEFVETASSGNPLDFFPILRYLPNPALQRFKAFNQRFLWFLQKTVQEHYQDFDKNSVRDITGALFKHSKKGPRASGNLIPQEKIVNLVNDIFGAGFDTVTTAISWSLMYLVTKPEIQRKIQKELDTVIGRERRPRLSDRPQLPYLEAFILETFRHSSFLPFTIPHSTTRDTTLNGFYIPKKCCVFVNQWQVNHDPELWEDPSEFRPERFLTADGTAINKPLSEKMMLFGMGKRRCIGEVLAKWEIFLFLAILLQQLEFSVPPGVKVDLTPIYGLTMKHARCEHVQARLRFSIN

CYP2C9 = CYP2C9 (Homo sapiens, UniProt P11712); assay: CYP inhibition, CYP2C9; assay type: in vitro ADME
Sequence of CYP2C9 (P11712 whole entry): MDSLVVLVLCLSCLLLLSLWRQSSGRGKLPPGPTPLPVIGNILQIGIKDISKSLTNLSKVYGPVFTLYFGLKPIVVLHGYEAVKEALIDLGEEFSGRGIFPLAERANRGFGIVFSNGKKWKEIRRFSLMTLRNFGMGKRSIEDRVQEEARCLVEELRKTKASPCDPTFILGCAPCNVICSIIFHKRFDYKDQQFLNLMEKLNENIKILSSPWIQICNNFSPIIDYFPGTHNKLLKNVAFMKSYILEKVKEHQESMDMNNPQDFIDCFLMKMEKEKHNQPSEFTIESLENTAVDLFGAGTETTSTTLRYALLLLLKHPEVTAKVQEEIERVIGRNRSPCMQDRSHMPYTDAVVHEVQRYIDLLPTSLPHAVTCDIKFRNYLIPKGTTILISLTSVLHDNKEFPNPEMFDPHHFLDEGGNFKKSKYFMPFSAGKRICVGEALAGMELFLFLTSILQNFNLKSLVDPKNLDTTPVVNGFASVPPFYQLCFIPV

CYP2C19 = CYP2C19 (Homo sapiens, UniProt P33261); assay: CYP inhibition, CYP2C19; assay type: in vitro ADME
Sequence of CYP2C19 (P33261 whole entry): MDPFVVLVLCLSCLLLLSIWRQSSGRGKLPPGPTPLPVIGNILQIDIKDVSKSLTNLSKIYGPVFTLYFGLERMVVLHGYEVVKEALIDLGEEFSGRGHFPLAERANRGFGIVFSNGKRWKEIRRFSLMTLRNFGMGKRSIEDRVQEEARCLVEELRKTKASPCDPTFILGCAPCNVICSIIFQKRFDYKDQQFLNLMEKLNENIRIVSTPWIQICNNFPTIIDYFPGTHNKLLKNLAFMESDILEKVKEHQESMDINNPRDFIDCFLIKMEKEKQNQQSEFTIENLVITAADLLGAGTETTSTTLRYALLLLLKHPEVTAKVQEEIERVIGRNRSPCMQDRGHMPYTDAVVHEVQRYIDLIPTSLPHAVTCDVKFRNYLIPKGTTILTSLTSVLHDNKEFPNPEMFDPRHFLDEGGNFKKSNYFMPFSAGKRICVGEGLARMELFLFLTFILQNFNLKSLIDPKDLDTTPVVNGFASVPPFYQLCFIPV

CYP2D6 = CYP2D6 (Homo sapiens, UniProt P10635); assay: CYP inhibition, CYP2D6; assay type: in vitro ADME
Sequence of CYP2D6 (P10635 whole entry): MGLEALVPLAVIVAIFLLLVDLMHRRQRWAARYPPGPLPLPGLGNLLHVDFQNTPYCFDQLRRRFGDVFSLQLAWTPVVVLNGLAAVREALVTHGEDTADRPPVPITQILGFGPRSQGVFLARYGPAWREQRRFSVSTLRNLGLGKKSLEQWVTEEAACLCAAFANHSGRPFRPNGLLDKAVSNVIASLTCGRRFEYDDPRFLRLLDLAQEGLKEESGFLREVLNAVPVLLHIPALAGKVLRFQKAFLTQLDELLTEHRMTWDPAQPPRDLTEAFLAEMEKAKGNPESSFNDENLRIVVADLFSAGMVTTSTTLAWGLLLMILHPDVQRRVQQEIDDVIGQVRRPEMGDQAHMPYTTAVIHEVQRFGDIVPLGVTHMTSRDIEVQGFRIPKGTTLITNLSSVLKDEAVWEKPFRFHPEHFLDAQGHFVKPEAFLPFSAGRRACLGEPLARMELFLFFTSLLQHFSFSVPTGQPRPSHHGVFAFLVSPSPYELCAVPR

CYP3A4 = CYP3A4 (Homo sapiens, UniProt P08684); assay: CYP inhibition, CYP3A4; assay type: in vitro ADME; conditions: probe midazolam
Sequence of CYP3A4 (P08684 whole entry): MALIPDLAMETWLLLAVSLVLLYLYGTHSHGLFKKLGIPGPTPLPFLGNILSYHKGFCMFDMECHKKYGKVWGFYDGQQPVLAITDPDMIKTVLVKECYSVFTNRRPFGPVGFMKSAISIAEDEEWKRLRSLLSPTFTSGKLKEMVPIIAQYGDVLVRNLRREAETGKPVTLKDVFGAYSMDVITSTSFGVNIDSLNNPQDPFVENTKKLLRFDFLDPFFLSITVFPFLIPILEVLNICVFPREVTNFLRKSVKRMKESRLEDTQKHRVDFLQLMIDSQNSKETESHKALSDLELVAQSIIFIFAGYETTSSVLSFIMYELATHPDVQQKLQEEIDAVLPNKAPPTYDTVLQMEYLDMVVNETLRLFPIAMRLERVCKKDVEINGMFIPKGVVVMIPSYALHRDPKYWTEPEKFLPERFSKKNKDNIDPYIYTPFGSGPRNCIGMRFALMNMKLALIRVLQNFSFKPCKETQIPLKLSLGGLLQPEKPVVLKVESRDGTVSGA

hERG = hERG (Homo sapiens, UniProt Q12809); assay: hERG channel inhibition, manual patch-clamp; assay type: cell-based; conditions: human
Sequence of hERG (Q12809 whole entry): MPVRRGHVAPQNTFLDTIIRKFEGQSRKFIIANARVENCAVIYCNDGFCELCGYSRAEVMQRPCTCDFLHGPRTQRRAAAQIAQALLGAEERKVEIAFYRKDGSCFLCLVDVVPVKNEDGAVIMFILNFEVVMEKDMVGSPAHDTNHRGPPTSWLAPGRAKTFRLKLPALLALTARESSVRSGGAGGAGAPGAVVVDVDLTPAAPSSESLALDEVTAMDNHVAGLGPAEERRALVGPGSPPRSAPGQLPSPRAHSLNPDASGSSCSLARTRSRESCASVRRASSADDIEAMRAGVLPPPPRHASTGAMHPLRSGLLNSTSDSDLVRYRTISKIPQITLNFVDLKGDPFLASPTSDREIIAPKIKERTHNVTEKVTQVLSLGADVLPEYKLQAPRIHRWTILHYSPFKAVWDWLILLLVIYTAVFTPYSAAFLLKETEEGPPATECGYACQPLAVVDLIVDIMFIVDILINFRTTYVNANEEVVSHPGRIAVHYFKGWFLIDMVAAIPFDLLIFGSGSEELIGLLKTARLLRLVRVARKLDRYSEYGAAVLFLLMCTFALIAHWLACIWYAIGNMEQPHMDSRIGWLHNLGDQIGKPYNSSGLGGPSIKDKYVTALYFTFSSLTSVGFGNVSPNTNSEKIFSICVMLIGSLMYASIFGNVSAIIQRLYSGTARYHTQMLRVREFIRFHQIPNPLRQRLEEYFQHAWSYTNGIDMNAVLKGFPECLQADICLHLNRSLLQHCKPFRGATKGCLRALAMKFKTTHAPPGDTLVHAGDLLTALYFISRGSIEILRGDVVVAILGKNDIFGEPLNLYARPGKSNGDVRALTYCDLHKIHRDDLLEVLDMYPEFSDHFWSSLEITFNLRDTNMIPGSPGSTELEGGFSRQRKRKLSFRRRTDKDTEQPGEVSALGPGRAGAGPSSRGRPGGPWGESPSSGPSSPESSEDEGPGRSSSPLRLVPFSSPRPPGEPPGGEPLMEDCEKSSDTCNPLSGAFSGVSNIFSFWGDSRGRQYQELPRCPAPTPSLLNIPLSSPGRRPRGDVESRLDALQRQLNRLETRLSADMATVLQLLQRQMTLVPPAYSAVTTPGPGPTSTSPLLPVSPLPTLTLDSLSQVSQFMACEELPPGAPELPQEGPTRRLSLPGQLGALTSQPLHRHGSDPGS

[4] = biological target: human Ether-à-go-go related gene (hERG) channel (Homo sapiens, UniProt Q12809); assay: hERG channel inhibition, manual patch-clamp; assay type: cell-based
Sequence of human Ether-à-go-go related gene (hERG) channel (Q12809 whole entry): as above

in vitro [5] = assay type: in vitro ADME
in vitro [6] = assay type: in vitro ADME; conditions: human, microsomes, Liver microsomes, % remaining after 1 hr (human)
in vitro [7] = assay type: in vitro ADME; conditions: mouse, microsomes, Liver microsomes, % remaining after 1 hr (mouse)

Cc1ccc2nc(C)c(C(=O)NCC3CCCCC3)n2c1 [Compound 9, N-(cyclohexylmethyl)-2,6-dimethylimidazo[1,2-a]pyridine-3-carboxamide]
fold more potent against M.tb than counterparts 3 - 5 with no carbon spacer (Mtb H37Rv; ratio of MIC): 267 fold

Cc1ccc2nc(C)c(C(=O)NCC3CCCCCC3)n2c1 [Compound 10, N-(cycloheptylmethyl)-2,6-dimethylimidazo[1,2-a]pyridine-3-carboxamide]
fold more potent against M.tb than counterparts 3 - 5 with no carbon spacer (Mtb H37Rv; ratio of MIC): 133 fold

Cc1ccc2nc(C)c(C(=O)NCC3CCCCCCC3)n2c1 [Compound 11, N-(cyclooctylmethyl)-2,6-dimethylimidazo[1,2-a]pyridine-3-carboxamide]
fold more potent against M.tb than counterparts 3 - 5 with no carbon spacer (Mtb H37Rv; ratio of MIC): 133 fold

Cc1ccc2nc(C)c(C(=O)NCC34CC5CC(CC(C5)C3)C4)n2c1 [Compound 12, N-(adamantan-1-ylmethyl)-2,6-dimethylimidazo[1,2-a]pyridine-3-carboxamide]
anti-TB activity in words (Mtb H37Rv): poor anti-TB activity

Cc1ccc2nc(C)c(C(=O)NCCCC3CCCCC3)n2c1 [Compound 15, N-(3-cyclohexylpropyl)-2,6-dimethylimidazo[1,2-a]pyridine-3-carboxamide]
MIC (Mtb V4207/DS): 0.1 µM (≈ 0.0313 µg/mL)
fold increase in activity against MDR Mtb strain KZN494 (Mtb KZN494/MDR): 2 fold
IC50 at 72 h (in vitro [1]): 102 µM
SI, Selectivity index = IC50 (Vero)/MIC (Vero cells): 1024
MIC range against MDR and XDR strains of TB (clinical isolates of Mtb): 0.05 to 1.5 µM
fold drop in activity against the tested clinical isolates of Mtb (clinical isolates of Mtb): up to 2 fold
fold more active than isoniazid against H37Rv (Mtb H37Rv; ratio of MIC): 1.5 - 3 fold
Mtb MIC H37Rv/DS (Mtb H37Rv): 0.10 µM
fold more active than compounds 9 and 13 (Mtb H37Rv; ratio of MIC): 4 fold

Cc1nc2ccc(Cl)cn2c1C(=O)NCCCC1CCCCC1 [Compound 16, 6-chloro-N-(3-cyclohexylpropyl)-2-methylimidazo[1,2-a]pyridine-3-carboxamide]
MIC (Mtb V4207/DS): 0.37 µM (≈ 0.124 µg/mL)
fold increase in activity against MDR Mtb strain KZN494 (Mtb KZN494/MDR): 2 fold
IC50 at 72 h (in vitro [1]): ≥ 192 µM
SI, Selectivity index = IC50 (Vero)/MIC (Vero cells): ≥1024
fraction unbound (in vitro [2]): 0.0011
fraction unbound (in vitro [3]): 0.0036
inhibition at 10 µM (CYP1A2): 26.3%
inhibition at 10 µM (CYP2C9): 32.2%
inhibition at 10 µM (CYP2C19): 45.2%
inhibition at 10 µM (CYP2D6): 16.4%
inhibition at 10 µM (CYP3A4): 52.2%
inhibition at 10 µM (hERG): 29.1%
IC50 [4]: > 10 µM
% degraded after 2 hours incubation with human hepatocyte (in vitro [5]; 2 h, 1 μM): over 95%
remaining at 2 h, 1 μM (in vitro [5]; human, hepatocytes): 0.19%
remaining at 1 h, 1 μM (in vitro [6]): ~1.5%
remaining at 1 h, 1 μM (in vitro [7]): ~0.15%
MIC range against MDR and XDR strains of TB (clinical isolates of Mtb): 0.05 to 1.5 µM
fold drop in activity against the tested clinical isolates of Mtb (clinical isolates of Mtb): up to 8 fold
fold more active than isoniazid against H37Rv (Mtb H37Rv; ratio of MIC): 1.5 - 3 fold
Mtb MIC H37Rv/DS (Mtb H37Rv): 0.19 µM
fold drop in activity relative to compound 15 (Mtb H37Rv; ratio of MIC): approximately 2 fold

O=C(NCCCC1CCCCC1)c1c(-c2ccccc2)nc2cc(Cl)ccn12 [Compound 17, 7-chloro-N-(3-cyclohexylpropyl)-2-phenylimidazo[1,2-a]pyridine-3-carboxamide]
anti-TB activity in words (Mtb H37Rv): complete loss in activity

O=C(NC1CCCCCCC1)c1cn2ccc(Cl)cc2n1 [Compound 18, 7-chloro-N-cyclooctylimidazo[1,2-a]pyridine-2-carboxamide]
anti-TB activity in words (Mtb H37Rv): less active

O=C(NCCCC1CCCCC1)c1cn2ccc(Cl)cc2n1 [Compound 19, 7-chloro-N-(3-cyclohexylpropyl)imidazo[1,2-a]pyridine-2-carboxamide]
anti-TB activity in words (Mtb H37Rv): less active
